In patent publication US8283361B2 (AstraZeneca AB, priority 2008, dated 2012):

The compounds below were run against S. aureus GyrB ATPase (Staphylococcus aureus, UniProt P0A0K8) (assay: biochemical). Settings: compound at 1 μM; one value per test if tested more than once; 1 µM.
Chain of S. aureus GyrB ATPase (P0A0K8 whole entry): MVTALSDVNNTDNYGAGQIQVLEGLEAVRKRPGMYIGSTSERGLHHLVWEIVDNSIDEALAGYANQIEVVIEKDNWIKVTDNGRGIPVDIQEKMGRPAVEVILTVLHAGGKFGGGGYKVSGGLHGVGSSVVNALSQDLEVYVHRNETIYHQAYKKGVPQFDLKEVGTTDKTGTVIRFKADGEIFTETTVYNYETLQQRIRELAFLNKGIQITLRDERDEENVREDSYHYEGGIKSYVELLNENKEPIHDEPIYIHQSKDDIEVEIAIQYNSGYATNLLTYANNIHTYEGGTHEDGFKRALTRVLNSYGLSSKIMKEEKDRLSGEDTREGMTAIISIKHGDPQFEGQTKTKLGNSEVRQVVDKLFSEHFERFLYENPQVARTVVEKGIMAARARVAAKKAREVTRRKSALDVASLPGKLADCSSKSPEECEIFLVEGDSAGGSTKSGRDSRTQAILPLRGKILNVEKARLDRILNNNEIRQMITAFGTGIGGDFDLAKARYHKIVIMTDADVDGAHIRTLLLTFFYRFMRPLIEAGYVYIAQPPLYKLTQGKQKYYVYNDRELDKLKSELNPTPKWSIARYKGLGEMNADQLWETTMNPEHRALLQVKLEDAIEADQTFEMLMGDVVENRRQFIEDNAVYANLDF
Chain of S. aureus GyrB ATPase (P0AES4 whole entry, further chain): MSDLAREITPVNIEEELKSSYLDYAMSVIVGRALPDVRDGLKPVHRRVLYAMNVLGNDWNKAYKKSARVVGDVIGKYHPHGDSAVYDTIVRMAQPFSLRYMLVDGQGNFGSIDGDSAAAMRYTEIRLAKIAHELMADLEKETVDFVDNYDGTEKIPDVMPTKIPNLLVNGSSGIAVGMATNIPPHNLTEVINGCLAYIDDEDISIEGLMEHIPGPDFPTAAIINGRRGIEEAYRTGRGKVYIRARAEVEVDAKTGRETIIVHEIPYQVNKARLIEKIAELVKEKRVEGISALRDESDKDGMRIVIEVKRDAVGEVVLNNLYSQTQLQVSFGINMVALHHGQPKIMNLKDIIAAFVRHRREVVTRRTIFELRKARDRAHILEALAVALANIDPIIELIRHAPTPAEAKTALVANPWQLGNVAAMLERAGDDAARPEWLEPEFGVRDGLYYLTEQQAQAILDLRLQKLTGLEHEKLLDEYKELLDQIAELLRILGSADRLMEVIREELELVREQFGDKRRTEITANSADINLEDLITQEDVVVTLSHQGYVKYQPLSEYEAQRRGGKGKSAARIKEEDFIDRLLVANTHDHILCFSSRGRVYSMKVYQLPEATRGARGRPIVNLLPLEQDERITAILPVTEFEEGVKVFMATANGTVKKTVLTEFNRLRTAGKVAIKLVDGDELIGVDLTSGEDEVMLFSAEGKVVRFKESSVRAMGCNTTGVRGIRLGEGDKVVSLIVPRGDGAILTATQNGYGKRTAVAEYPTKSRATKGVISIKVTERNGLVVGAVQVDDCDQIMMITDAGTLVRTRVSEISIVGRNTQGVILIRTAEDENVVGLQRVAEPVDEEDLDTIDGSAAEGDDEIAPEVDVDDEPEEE
Procedure: S. aureus GyrB ATPase Inhibition Activity: Compounds may be tested for inhibition of S. aureus GyrB ATPase activity using an ammonium molybdate/malachite green-based phosphate detection assay (Lanzetta, P. A., L. J. Alvarez, P. S. Reinach, and O. A. Candia, 1979, 100: 95-97). Assays can be performed in multiwell plates in 30 μl reactions containing: 50 mM Hepes buffer pH 7.5, 75 mM ammonium acetate, 8.0 mM magnesium chloride, 0.5 mM ethylenediaminetetraacetic acid, 5% glycerol, 1.0 mM 1,4-Dithio-DL-threitol, 200 nM bovine serum albumin, 1.0 μg/m1 sheared salmon sperm DNA, 250 pM E. coli GyrA, 250 pM S. aureus GyrB, 250 μM ATP, and compound in dimethylsulfoxide. Reactions can be quenched with 30 μl of ammonium molybdate/malachite green detection reagent containing 1.2 mM malachite green hydrochloride, 8.5 mM ammonium molybdate tetrahydrate, and 1 M hydrochloric acid. […] An IC50 measurement of compound potency for each compound can be determined from reactions performed in the presence of 10 different compound concentrations.
In the case of `CCNC(=O)Nc1cc(-c2nc(C(F)(F)F)cs2)c(-c2ccc3c(=O)c(C(=O)NC)cn(CC)c3c2)cn1` [Example 33, 1-ethyl-7-(6-(3-ethylureido)-4-(4-(trifluoromethyl)thiazol-2-yl)pyridin-3-yl)-N-methyl-4-oxo-1,4-dihydroquinoline-3-carboxamide], the “% Inhibition of S. aureus GyrB ATPase” value was 109%.

Same assay, conditions: compound at 1 μM; one value per test if tested more than once; read-out: % Inhibition of S. aureus GyrB ATPase
With `CCNC(=O)Nc1cc(-c2nc(C(F)(F)F)cs2)c(-c2ccc3c(c2)c(=O)c(C(=O)N2CCN(S(=O)(=O)N(C)C)CC2)cn3CCN(C)C)cn1` [Example 159, 4-(1-(2-(dimethylamino)ethyl)-6-(6-(3-ethylureido)-4-(4-(trifluoromethyl)thiazol-2-yl)pyridin-3-yl)-4-oxo-1,4-dihydroquinoline-3-carbonyl)-N,N-dimethylpiperazine-1-sulfonamide] the inhibition at 1 µM was 105%.
With `CCNC(=O)Nc1cc(-c2nc(C(F)(F)F)cs2)c(-c2ccc3c(=O)c(C(=O)NC)cn(CC)c3c2)cn1` [Example 33, 1-ethyl-7-(6-(3-ethylureido)-4-(4-(trifluoromethyl)thiazol-2-yl)pyridin-3-yl)-N-methyl-4-oxo-1,4-dihydroquinoline-3-carboxamide] the inhibition at 1 µM was 97%.
In the case of `CCNC(=O)Nc1cc(-c2nc(C(F)(F)F)cs2)c(-c2ccc3c(c2)c(=O)c(C(=O)O)cn3[C@H]2CCCN(Cc3cccn3C)C2)cn1` [Example 283, (S)-ethyl 6-(6-(3-ethylureido)-4-(4-(trifluoromethyl)thiazol-2-yl)pyridin-3-yl)-1-(1-((1-methyl-1H-pyrrol-2-yl)methyl)piperidin-3-yl)-4-oxo-1,4-dihydroquinoline-3-carboxylic acid], the inhibition at 1 µM was 102%.
For `CCNC(=O)Nc1cc(-c2nc(C(F)(F)F)cs2)c(-c2ccc3c(=O)c(C(=O)NCCO)cn(CC(C)C)c3c2)cn1` [Example 342, 7-{6-[(ethylcarbamoyl)amino]-4-[4-(trifluoromethyl)-1,3-thiazol-2-yl]pyridin-3-yl}-N-(2-hydroxyethyl)-1-(2-methylpropyl)-4-oxo-1,4-dihydroquinoline-3-carboxamide], the inhibition at 1 µM was 99%.
`CCCNC(=O)Nc1cc(-c2nc(C(F)(F)F)cs2)c(-c2ccc3c(c2)c(=O)c(C(=O)O)cn3C2CN(C)C2)cn1` [Example 153, 1-(1-methylazetidin-3-yl)-4-oxo-6-(6-(3-propylureido)-4-(4-(trifluoromethyl)thiazol-2-yl)pyridin-3-yl)-1,4-dihydroquinoline-3-carboxylic acid] showed an inhibition at 1 µM of 105%.
`CCNC(=O)Nc1cc(-c2nc(C(F)(F)F)cs2)c(-c2ccc3c(=O)c(C(=O)O)cn(Cc4ccccc4)c3c2)cn1` [Example 28, 1-benzyl-7-{6-[(ethylcarbamoyl)amino]-4-[4-(trifluoromethyl)-1,3-thiazol-2-yl]pyridin-3-yl}-4-oxo-1,4-dihydroquinoline-3-carboxylic acid] was tested, and the inhibition at 1 µM was 97%.
Work on `CCCNC(=O)Nc1cc(-c2nc(C(F)(F)F)cs2)c(-c2ccc3c(c2)c(=O)c(C(=O)NCCO)cn3CCN2CCOCC2)cn1` [Example 205, N-(2-hydroxyethyl)-1-(2-morpholinoethyl)-4-oxo-6-(6-(3-propylureido)-4-(4-(trifluoromethyl)thiazol-2-yl)pyridin-3-yl)-1,4-dihydroquinoline-3-carboxamide] yielded an inhibition at 1 µM of 94%.
`CCNC(=O)Nc1cc(-c2nc(C(F)(F)F)cs2)c(-c2ccc3c(=O)c(C(=O)NCCCO)cn(CC)c3c2)cn1` [Example 331, 1-Ethyl-7-{6-[(ethylcarbamoyl)amino]-4-[4-(trifluoromethyl)-1,3-thiazol-2-yl]pyridin-3-yl}-N-(3-hydroxypropyl)-4-oxo-1,4-dihydroquinoline-3-carboxamide] gave an inhibition at 1 µM of 109%.
`CCNC(=O)Nc1cc(-c2nc(C(F)(F)F)cs2)c(-c2ccc3c(c2)c(=O)c(C(=O)O)cn3[C@@H]2CCNC2)cn1` [Example 244, (R)-6-(6-(3-ethylureido)-4-(4-(trifluoromethyl)thiazol-2-yl)pyridin-3-yl)-4-oxo-1-(pyrrolidin-3-yl)-1,4-dihydroquinoline-3-carboxylic acid] showed an inhibition at 1 µM of 111%.
Work on `CCNC(=O)Nc1cc(-c2nc(C(F)(F)F)cs2)c(-c2ccc3c(c2)c(=O)c(C(=O)O)cn3C2CCOCC2)cn1` [Example 321, 6-(6-(3-Ethylureido)-4-(4-(trifluoromethyl)thiazol-2-yl)-pyridin-3-yl)-4-oxo-1-(tetrahydro-2H-pyran-4-yl)-1,4dihydroquinoline-3-carboxylic acid] yielded an inhibition at 1 µM of 100%.
Work on `CCNC(=O)Nc1cc(-c2nc(C(F)(F)F)cs2)c(-c2ccc3c(c2)c(=O)c(C(=O)NC2CCOCC2)cn3C(COC)COC)cn1` [Example 128, 1-(1,3-dimethoxypropan-2-yl)-6-(6-(3-ethylureido)-4-(4-(trifluoromethyl)thiazol-2-yl)pyridin-3-yl)-4-oxo-N-(tetrahydro-2H-pyran-4-yl)-1,4-dihydroquinoline-3-carboxamide] yielded an inhibition at 1 µM of 92%.
`CCNC(=O)Nc1cc(-c2nc(C(F)(F)F)cs2)c(-c2ccc3c(c2)c(=O)c(C(=O)O)cn3[C@@H]2CCCC[C@H]2O)cn1` [Example 278, 6-(6-(3-ethylureido)-4-(4-(trifluoromethyl)thiazol-2-yl)pyridin-3-yl)-1-((1R,2R)-2-hydroxycyclohexyl)-4-oxo-1,4-dihydroquinoline-3-carboxylic acid] gave an inhibition at 1 µM of 101%.
With `CCNC(=O)Nc1cc(-c2nc(C(F)(F)F)cs2)c(-c2ccc3c(=O)c(C(=O)NCCO)cn(CCOC)c3c2)cn1` [Example 370, 7-{6-[(Ethylcarbamoyl)amino]-4-[4-(trifluoromethyl)-1,3-thiazol-2-yl]pyridin-3-yl}-N-(2-hydroxyethyl)-1-(2-methoxyethyl)-4-oxo-1,4-dihydroquinoline-3-carboxamide] the inhibition at 1 µM was 98%.
`CCCNC(=O)Nc1cc(-c2nc(C(F)(F)F)cs2)c(-c2ccc3c(c2)c(=O)c(C(=O)NCCN(C)C)cn3CCN(C)C)cn1` [Example 219, N,1-bis(2-(dimethylamino)ethyl)-4-oxo-6-(6-(3-propylureido)-4-(4-(trifluoromethyl)thiazol-2-yl)pyridin-3-yl)-1,4-dihydroquinoline-3-carboxamide] gave an inhibition at 1 µM of 86%.
In the case of `CCNC(=O)Nc1cc(-c2nc(C(F)(F)F)cs2)c(-c2ccc3c(=O)c(C(=O)NCCCO)cn(CCO)c3c2)cn1` [Example 365, 7-{6-[(ethylcarbamoyl)amino]-4-[4-(trifluoromethyl)-1,3-thiazol-2-yl]pyridin-3-yl}-1-(2-hydroxyethyl)-N-(3-hydroxypropyl)-4-oxo-1,4-dihydroquinoline-3-carboxamide], the inhibition at 1 µM was 99%.
With `CCCn1cc(C(=O)NC)c(=O)c2ccc(-c3cnc(NC(=O)NCC)cc3-c3nc(C(F)(F)F)cs3)cc21` [Example 347, 7-{6-[(ethylcarbamoyl)amino]-4-[4-(trifluoromethyl)-1,3-thiazol-2-yl]pyridin-3-yl}-N-methyl-4-oxo-1-propyl-1,4-dihydroquinoline-3-carboxamide] the inhibition at 1 µM was 100%.
`CCNC(=O)Nc1cc(-c2nc(C(F)(F)F)cs2)c(-c2ccc3c(=O)c(C(=O)NCCN4CCN(C)CC4)cn(Cc4cccnc4)c3c2)cn1` [Example 362, 7-{6-[(ethylcarbamoyl)amino]-4-[4-(trifluoromethyl)-1,3-thiazol-2-yl]pyridin-3-yl}-N-[2-(4-methylpiperazin-1-yl)ethyl]-4-oxo-1-(pyridin-3-ylmethyl)-1,4-dihydroquinoline-3-carboxamide] showed an inhibition at 1 µM of 94%.
`CCNC(=O)Nc1cc(-c2nc(C(F)(F)F)cs2)c(-c2ccc3c(c2)c(=O)c(C(=O)O)cn3CC)cn1` [Example 10, 1-ethyl-6-(6-(3-ethylureido)-4-(4-trifluoromethylthiazol-2-yl)pyridin-3-yl)-4-oxo-1,4-dihydroquinoline-3-carboxylic acid] was tested, and the inhibition at 1 µM was 99%.
Compound `CCNC(=O)Nc1cc(-c2nc(C(F)(F)F)cs2)c(-c2ccc3c(c2)c(=O)c(C(=O)O)cn3CC2COCCN2)cn1` (stereo not drawn) [Example 293] has an inhibition at 1 µM of 106%.
`CCNC(=O)Nc1cc(-c2nc(C(F)(F)F)cs2)c(-c2ccc3c(c2)c(=O)c(C(=O)N2CCN(C)CC2)cn3C2CN(C)C2)cn1` [Example 167, 1-ethyl-3-(5-(1-(1-methylazetidin-3-yl)-3-(4-methylpiperazine-1-carbonyl)-4-oxo-1,4-dihydroquinolin-6-yl)-4-(4-(trifluoromethyl)thiazol-2-yl)pyridin-2-yl)urea] gave an inhibition at 1 µM of 109%.
For `CCNC(=O)Nc1cc(-c2nc(C(F)(F)F)cs2)c(-c2ccc3c(c2)c(=O)c(C(=O)NC)cn3[C@H](CO)CC(C)C)cn1` [Example 96, (S)-6-(6-(3-ethylureido)-4-(4-(trifluoromethyl)thiazol-2-yl)pyridin-3-yl)-1-(1-hydroxy-4-methylpentan-2-yl)-N-methyl-4-oxo-1,4-dihydroquinoline-3-carboxamide], the inhibition at 1 µM was 95%.
`CCNC(=O)Nc1cc(-c2nc(C(F)(F)F)cs2)c(-c2ccc3c(=O)c(C(=O)NCCN(C)C)cn(CC4CC4)c3c2)cn1` [Example 377, 1-(Cyclopropylmethyl)-N-[2-(dimethylamino)ethyl]-7-{6-[(ethylcarbamoyl)amino]-4-[4-(trifluoromethyl)-1,3-thiazol-2-yl]pyridin-3-yl}-4-oxo-1,4-dihydroquinoline-3-carboxamide] gave an inhibition at 1 µM of 106%.

Same assay, conditions: read-out: % Inhibition of S. aureus GyrB ATPase
Compound `CCNC(=O)Nc1cc(-c2nc(C(F)(F)F)cs2)c(-c2ccc3c(c2)c(=O)c(C(=O)O)cn3CCCN2CCCC2=O)cn1` [Example 7, 6-(6-(3-ethylureido)-4-(4-(trifluoromethyl)thiazol-2-yl)pyridin-3-yl)-4-oxo-1-(3-(2-oxopyrrolidin-1-yl)propyl)-1,4-dihydroquinoline-3-carboxylic acid sodium] has an inhibition at 1 µM of 100%.
